Results taken from publication PMC4669708 (Cell Death & Disease, 2015).

Columns and labels:
Assay in all cases: c-ponatinib pulldown LC-MS/MS
Assay type in all cases: binding
[1] = target: T1, TAB2 (Homo sapiens, UniProt Q9NYJ8)
T1 sequence (Q9NYJ8 1-693): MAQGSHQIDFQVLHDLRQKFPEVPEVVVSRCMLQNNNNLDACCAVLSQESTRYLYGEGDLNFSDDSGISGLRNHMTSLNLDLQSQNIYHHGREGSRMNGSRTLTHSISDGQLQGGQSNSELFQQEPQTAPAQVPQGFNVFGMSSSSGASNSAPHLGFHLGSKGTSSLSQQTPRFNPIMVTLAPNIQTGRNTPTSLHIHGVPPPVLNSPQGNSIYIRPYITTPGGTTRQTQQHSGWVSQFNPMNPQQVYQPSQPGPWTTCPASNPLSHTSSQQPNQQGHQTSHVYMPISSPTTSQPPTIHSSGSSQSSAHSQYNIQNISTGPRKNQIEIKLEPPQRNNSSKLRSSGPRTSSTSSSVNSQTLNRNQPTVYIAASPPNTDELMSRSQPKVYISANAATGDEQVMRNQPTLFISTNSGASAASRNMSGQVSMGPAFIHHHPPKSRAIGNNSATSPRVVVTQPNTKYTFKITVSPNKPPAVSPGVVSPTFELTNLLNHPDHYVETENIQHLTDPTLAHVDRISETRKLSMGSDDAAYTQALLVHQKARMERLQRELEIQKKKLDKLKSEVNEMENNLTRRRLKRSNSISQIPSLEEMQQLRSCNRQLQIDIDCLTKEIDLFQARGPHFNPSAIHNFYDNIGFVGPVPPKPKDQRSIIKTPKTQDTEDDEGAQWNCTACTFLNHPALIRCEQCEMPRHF
T1 sequence (O43318 1-606 partner): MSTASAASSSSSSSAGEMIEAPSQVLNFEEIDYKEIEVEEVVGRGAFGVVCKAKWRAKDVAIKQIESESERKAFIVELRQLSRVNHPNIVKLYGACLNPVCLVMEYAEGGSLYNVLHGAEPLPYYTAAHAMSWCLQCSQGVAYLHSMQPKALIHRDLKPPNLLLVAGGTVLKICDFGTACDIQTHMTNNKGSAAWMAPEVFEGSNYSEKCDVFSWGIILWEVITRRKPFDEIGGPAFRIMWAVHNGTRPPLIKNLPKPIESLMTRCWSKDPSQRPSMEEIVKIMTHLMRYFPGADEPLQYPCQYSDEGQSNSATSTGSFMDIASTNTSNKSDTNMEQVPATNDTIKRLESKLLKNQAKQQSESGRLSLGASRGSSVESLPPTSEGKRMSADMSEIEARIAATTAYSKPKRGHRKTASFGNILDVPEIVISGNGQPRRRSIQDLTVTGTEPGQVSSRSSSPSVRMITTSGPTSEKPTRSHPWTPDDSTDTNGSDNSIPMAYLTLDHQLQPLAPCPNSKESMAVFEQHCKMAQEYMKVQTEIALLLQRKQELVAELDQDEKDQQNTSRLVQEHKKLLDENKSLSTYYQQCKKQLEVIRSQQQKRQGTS
Summary of the method: (§1)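 Spectral counts and search-engine scores from LC-MS/MS of tryptic eluates gave drug-protein specificity P-values. Eluates came from duplicate pulldowns of 10 mg lysate on 25 nmol immobilized c-ponatinib. Competition was the ratio of median counts with versus without free compound.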

[2] = target: TCP1 (Homo sapiens, UniProt P17987)
Summary of the method: as §1

[3] = target: UNC119B (Homo sapiens, UniProt A6NIH7)
Summary of the method: as §1

Chain of TCP1 (P17987 whole entry): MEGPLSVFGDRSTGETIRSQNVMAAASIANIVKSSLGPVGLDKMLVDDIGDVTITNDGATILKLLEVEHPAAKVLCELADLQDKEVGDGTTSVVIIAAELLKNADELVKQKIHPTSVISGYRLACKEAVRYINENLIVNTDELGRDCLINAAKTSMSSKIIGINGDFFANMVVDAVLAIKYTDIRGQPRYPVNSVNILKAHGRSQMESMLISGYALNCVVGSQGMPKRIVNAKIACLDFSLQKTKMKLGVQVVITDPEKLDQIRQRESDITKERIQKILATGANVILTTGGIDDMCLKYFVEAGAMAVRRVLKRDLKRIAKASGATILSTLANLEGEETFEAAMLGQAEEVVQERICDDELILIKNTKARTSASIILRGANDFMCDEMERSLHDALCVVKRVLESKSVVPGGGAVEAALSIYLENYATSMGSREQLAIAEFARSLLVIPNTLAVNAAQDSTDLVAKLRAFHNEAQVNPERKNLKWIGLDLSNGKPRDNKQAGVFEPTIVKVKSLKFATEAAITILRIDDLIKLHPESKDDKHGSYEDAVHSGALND
Chain of UNC119B (A6NIH7 whole entry): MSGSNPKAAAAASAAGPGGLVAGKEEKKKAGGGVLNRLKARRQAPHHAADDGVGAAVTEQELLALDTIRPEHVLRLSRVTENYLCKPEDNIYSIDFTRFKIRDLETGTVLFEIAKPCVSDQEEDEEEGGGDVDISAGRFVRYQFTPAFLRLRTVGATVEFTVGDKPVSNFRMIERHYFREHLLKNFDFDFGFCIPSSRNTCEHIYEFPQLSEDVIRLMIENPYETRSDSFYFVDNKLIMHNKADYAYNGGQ

`Cc1ccc(C(=O)Nc2ccc(CN3CCN(CCCN)CC3)c(C(F)(F)F)c2)cc1C#Cc1cnc2cccnn12` [c-ponatinib] was tested, and the “Av. SC comp.” value ([1]; + free ponatinib) was 0, the “Total SC comp.” value ([1]; + free ponatinib) was 0 and the “Av. SC” value ([1]; no competitor) was 2.5. The “Total SC” value ([1]; no competitor) was 10, the “Av. SC comp.” value ([2]; + free ponatinib) was 1.5 and the “Total SC comp.” value ([2]; + free ponatinib) was 6. For the same compound, the “Av. SC” value ([2]; no competitor) was 5, the “Total SC” value ([2]; no competitor) was 20 and the “Av. SC comp.” value ([3]; + free ponatinib) was 0. For the same compound, the “Total SC comp.” value ([3]; + free ponatinib) was 0, the “Av. SC” value ([3]; no competitor) was 6 and the “Total SC” value ([3]; no competitor) was 24.
